Reference: the supplement of paper PMC11061612

Assays:
Experiment in all cases: Bliss excess, mean over the matrix (fraction); higher = more synergy
A2058 (Melanoma) = tested on: A2058 (Melanoma)
Outline: (§1)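 Cell lines in DMEM/F12 or RPMI with 10% FBS were plated in 1536-well plates, held 24 hours at 37°C, 5% CO2, then given two-drug dose matrices for 72 hours (DMSO typically 0.2%). Viability was read by CellTiter-Glo 2.0 luminescence and scaled as inhibition from 0 (vehicle wells) to 1 (blank wells). Combination Emax is the second-highest inhibition in the matrix; Bliss excess is observed combination effect minus expected EA + EB − EA·EB, EA and EB being single-agent effects.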

[1] = tested on: PSN1 (Pancreatic Carcinoma)
Outline: as §1

[2] = tested on: OVMIU (Ovarian Carcinoma)
Outline: as §1

[3] = tested on: RKN (Other Solid Carcinomas)
Outline: as §1

[4] = tested on: GP5d (Colorectal Carcinoma)
Outline: as §1

[5] = tested on: NCI-H23 (Lung Adenocarcinoma)
Outline: as §1

SF539 (Glioblastoma) = tested on: SF539 (Glioblastoma)
Outline: as §1

[6] = tested on: HCT-15 (Colorectal Carcinoma)
Outline: as §1

[7] = tested on: NCI-H446 (Small Cell Lung Carcinoma)
Outline: as §1

[8] = tested on: L-1236 (Hodgkin's Lymphoma)
Outline: as §1

[9] = tested on: MFE-280 (Endometrial Carcinoma)
Outline: as §1

IST-MES1 (Mesothelioma) = tested on: IST-MES1 (Mesothelioma)
Outline: as §1

[10] = tested on: 23132-87 (Gastric Carcinoma)
Outline: as §1

[11] = tested on: VAL (B-Cell Non-Hodgkin's Lymphoma)
Outline: as §1

[12] = tested on: SHP-77 (Small Cell Lung Carcinoma)
Outline: as §1

[13] = tested on: LXF-289 (Lung Adenocarcinoma)
Outline: as §1

WM278 (Melanoma) = tested on: WM278 (Melanoma)
Outline: as §1

GB-1 (Glioblastoma) = tested on: GB-1 (Glioblastoma)
Outline: as §1

[14] = tested on: MKN45 (Gastric Carcinoma)
Outline: as §1

[15] = tested on: LK-2 (Squamous Cell Lung Carcinoma)
Outline: as §1

Compound | Bliss excess (A2058 (Melanoma)) | Bliss excess [1] | Bliss excess [2] | Bliss excess [3] | Bliss excess [4] | Bliss excess [5] | Bliss excess (SF539 (Glioblastoma)) | Bliss excess [6] | Bliss excess [7] | Bliss excess [8] | Bliss excess [9] | Bliss excess (IST-MES1 (Mesothelioma)) | Bliss excess [10] | Bliss excess [11] | Bliss excess [12] | Bliss excess [13] | Bliss excess (WM278 (Melanoma)) | Bliss excess (GB-1 (Glioblastoma)) | Bliss excess [14] | Bliss excess [15]
C[C@@H](c1ccc2nccn2c1)n1nnc2ncc(-c3cnn(C)c3)nc21 [Savolitinib] + CC1(C)CCC(CN2CCN(c3ccc(C(=O)NS(=O)(=O)c4ccc(NCC5CCOCC5)c([N+](=O)[O-])c4)c(Oc4cnc5[nH]ccc5c4)c3)CC2)=C(c2ccc(Cl)cc2)C1 [Venetoclax] (first compound max 1 µM, 7x7, partner max 1 µM) | -0.0611 | -0.0411 | -0.0569 | -0.0529 | -0.0572 | -0.0486 | -0.0697 | -0.012 | 0.0246 | 0.0176 | -0.044 | -0.0318 | -0.0578 | -0.0305 | -0.0623 | -0.0339 | -0.0614 | -0.0626 | -0.0664 | -0.0137
C[C@@H](c1ccc2nccn2c1)n1nnc2ncc(-c3cnn(C)c3)nc21 [Savolitinib] + Cc1c2c(nn1C)CSCc1cc(n(C)n1)CSc1cc(c3ccccc3c1)OCCCc1c(C(=O)O)n(C)c3c-2c(Cl)ccc13 [AZD5991] (first compound max 1 µM, 7x7, partner max 1 µM) | -0.0043 | -0.0182 | -0.0415 | -0.0706 | -0.0912 | -0.0163 | -0.0337 | 0.0013 | 0.0471 | -0.0017 | -0.052 | -0.0435 | 0.0014 | -0.0491 | -0.0662 | 0.0178 | -0.0386 | -0.0495 | -0.0133 | 0.007
Cn1cnc2c(F)c(Nc3ccc(Br)cc3Cl)c(C(=O)NOCCO)cc21 [Selumetinib] + C=CCn1c(=O)c2cnc(Nc3ccc(N4CCN(C)CC4)cc3)nc2n1-c1cccc(C(C)(C)O)n1 [AZD1775] (first compound max 10 µM, partner max 1 µM) | -0.029 | -0.0321 | -0.0888 | -0.0397 | -0.0796 | 0.0223 | -0.025 | -0.0198 | -0.0441 | -0.0131 | -0.0485 | -0.0955 | -0.0804 | -0.052 | 0.0141 | -0.0547 | -0.0183 | -0.0522 | -0.0765 | -0.0356
Cn1cnc2c(F)c(Nc3ccc(Br)cc3Cl)c(C(=O)NOCCO)cc21 [Selumetinib] + CC(C)n1c(=O)n(C)c2cnc3cc(F)c(-c4ccc(OCCCN5CCCCC5)nc4)cc3c21 [AZD1390] (first compound max 10 µM, 7x7, partner max 0.3 µM) | -0.0155 | -0.0639 | -0.0444 | 0.0378 | 0.0142 | -0.0103 | -0.0232 | -0.0001 | -0.0469 | 0.0284 | -0.0427 | -0.0382 | -0.0449 | -0.0424 | -0.0038 | -0.0312 | -0.0352 | -0.0574 | -0.0388 | 0.007
Cn1cnc2c(F)c(Nc3ccc(Br)cc3Cl)c(C(=O)NOCCO)cc21 [Selumetinib] + CCN(CCO)CCCOc1ccc2c(Nc3cc(CC(=O)Nc4cccc(F)c4)[nH]n3)ncnc2c1 [AZD2811] (first compound max 10 µM, 7x7, partner max 1 µM) | 0.0945 | -0.0501 | -0.038 | -0.0232 | -0.0153 | 0.0194 | -0.0193 | 0.0193 | -0.0069 | 0.0086 | -0.0767 | -0.0718 | -0.0264 | -0.0614 | 0.0447 | 0.0253 | -0.0003 | -0.0512 | 0.0107 | -0.0937
Cn1cnc2c(F)c(Nc3ccc(Br)cc3Cl)c(C(=O)NOCCO)cc21 [Selumetinib] + C[C@@H]1COCCN1C2=NC(=NC(=C2)C3(CC3)[S@](=N)(=O)C)C4=C5C=CNC5=NC=C4 [AZD6738] (first compound max 10 µM, 7x7, partner max 10 µM) | 0.059 | -0.0193 | -0.0084 | 0.0584 | 0.0209 | 0.0385 | 0.0586 | -0.0057 | 0.0036 | -0.041 | -0.0651 | -0.0374 | -0.0627 | -0.0657 | 0.0421 | -0.0165 | 0.0642 | -0.0347 | -0.0731 | 0.0613
CC(=O)Nc1cccc(-n2c(=O)n(C3CC3)c(=O)c3c(Nc4ccc(I)cc4F)n(C)c(=O)c(C)c32)c1 [Trametinib] + Cc1nc(-c2cn3c(n2)-c2ccc(-c4cnn(C(C)(C)C(N)=O)c4)cc2OCC3)n(C(C)C)n1 [Taselisib] (first compound max 1 µM, 7x7, partner max 10 µM) | 0.104 | 0.0665 | 0.0474 | 0.124 | -0.0186 | 0.189 | 0.177 | 0.139 | 0.0967 | 0.0881 | 0.021 | 0.0469 | 0.0654 | 0.101 | 0.107 | 0.164 | 0.13 | 0.159 | -0.0862 | 0.0821
CC1(C)CCC(CN2CCN(c3ccc(C(=O)NS(=O)(=O)c4ccc(NCC5CCOCC5)c([N+](=O)[O-])c4)c(Oc4cnc5[nH]ccc5c4)c3)CC2)=C(c2ccc(Cl)cc2)C1 [Venetoclax] + C1CN(CCC1(C(=O)N[C@@H](CCO)C2=CC=C(C=C2)Cl)N)C3=NC=NC4=C3C=CN4 [Capivasertib] (first compound max 1 µM, 7x7, partner max 3 µM) | -0.0333 | -0.0707 | -0.112 | -0.0469 | -0.0548 | -0.0081 | -0.0189 | -0.0383 | -0.0257 | -0.0739 | -0.0377 | -0.033 | -0.0427 | 0.0301 | -0.0797 | -0.0275 | -0.0699 | -0.0038 | -0.0205 | -0.0122
CC1(C)CCC(CN2CCN(c3ccc(C(=O)NS(=O)(=O)c4ccc(NCC5CCOCC5)c([N+](=O)[O-])c4)c(Oc4cnc5[nH]ccc5c4)c3)CC2)=C(c2ccc(Cl)cc2)C1 [Venetoclax] + C=CCn1c(=O)c2cnc(Nc3ccc(N4CCN(C)CC4)cc3)nc2n1-c1cccc(C(C)(C)O)n1 [AZD1775] (first compound max 1 µM, partner max 1 µM) | -0.0886 | -0.0553 | -0.013 | -0.0729 | -0.0561 | -0.0533 | -0.0234 | -0.0265 | -0.029 | 0.0035 | 0.0767 | -0.0281 | -0.0277 | 0.0103 | 0.0141 | -0.0515 | -0.0413 | 0.0144 | -0.0402 | 0.012
CC1(C)CCC(CN2CCN(c3ccc(C(=O)NS(=O)(=O)c4ccc(NCC5CCOCC5)c([N+](=O)[O-])c4)c(Oc4cnc5[nH]ccc5c4)c3)CC2)=C(c2ccc(Cl)cc2)C1 [Venetoclax] + CCN(CCO)CCCOc1ccc2c(Nc3cc(CC(=O)Nc4cccc(F)c4)[nH]n3)ncnc2c1 [AZD2811] (first compound max 1 µM, 7x7, partner max 1 µM) | 0.0655 | -0.0478 | -0.0851 | -0.011 | -0.0235 | -0.0051 | 0.0468 | 0.0051 | -0.0077 | -0.0197 | 0.0557 | -0.0327 | -0.0136 | 0.0158 | 0.0432 | -0.0678 | -0.0119 | -0.0501 | -0.066 | 0.0197
CC1(C)CCC(CN2CCN(c3ccc(C(=O)NS(=O)(=O)c4ccc(NCC5CCOCC5)c([N+](=O)[O-])c4)c(Oc4cnc5[nH]ccc5c4)c3)CC2)=C(c2ccc(Cl)cc2)C1 [Venetoclax] + CN(C)CCCOc1ccc(-c2ccc3ncc4c(c3c2)n(C2CCOCC2)c(=O)n4C)cn1 [AZD0156] (first compound max 1 µM, 7x7, partner max 1 µM) | 0.0014 | -0.0421 | -0.111 | -0.0862 | -0.0274 | -0.0114 | 0.0126 | -0.0192 | 0.0143 | -0.0182 | 0.0338 | -0.0382 | -0.0015 | 0.0308 | 0.0254 | -0.0157 | -0.0496 | -0.0206 | -0.095 | 0.02
CC1(C)CCC(CN2CCN(c3ccc(C(=O)NS(=O)(=O)c4ccc(NCC5CCOCC5)c([N+](=O)[O-])c4)c(Oc4cnc5[nH]ccc5c4)c3)CC2)=C(c2ccc(Cl)cc2)C1 [Venetoclax] + COc1cc(Nc2ncc3c(n2)-c2ccc(Cl)cc2C(c2c(F)cccc2OC)=NC3)ccc1C(=O)O [Alisertib] (first compound max 1 µM, 7x7, partner max 10 µM) | -0.0871 | -0.0219 | -0.151 | -0.0516 | 0.0453 | 0.14 | 0.0396 | -0.0034 | -0.0775 | -0.05 | -0.0266 | -0.0479 | -0.0303 | 0.0174 | 0.241 | -0.0953 | 0.0416 | -0.03 | -0.0645 | -0.035
CC1(C)CCC(CN2CCN(c3ccc(C(=O)NS(=O)(=O)c4ccc(NCC5CCOCC5)c([N+](=O)[O-])c4)c(Oc4cnc5[nH]ccc5c4)c3)CC2)=C(c2ccc(Cl)cc2)C1 [Venetoclax] + C[C@@H]1COCCN1C2=NC(=NC(=C2)C3(CC3)[S@](=N)(=O)C)C4=C5C=CNC5=NC=C4 [AZD6738] (first compound max 1 µM, 7x7, partner max 10 µM) | -0.0008 | -0.0848 | -0.111 | -0.058 | -0.0657 | 0.0157 | -0.0339 | -0.0084 | -0.0536 | -0.019 | -0.0486 | -0.0101 | -0.0422 | 0.004 | -0.007 | -0.0138 | -0.0712 | -0.0281 | -0.0526 | -0.0205
CC1(C)CCC(CN2CCN(c3ccc(C(=O)NS(=O)(=O)c4ccc(NCC5CCOCC5)c([N+](=O)[O-])c4)c(Oc4cnc5[nH]ccc5c4)c3)CC2)=C(c2ccc(Cl)cc2)C1 [Venetoclax] + C[C@@H](Nc1cc(F)cc(F)c1)c1cc(C(=O)N(C)C)cc2c(=O)cc(N3CCOCC3)oc12 [AZD8186] (first compound max 1 µM, 7x7, partner max 3 µM) | -0.0031 | -0.0683 | -0.129 | -0.0289 | -0.0188 | 0.007 | -0.0062 | -0.0184 | 0.135 | -0.0261 | -0.0525 | -0.0423 | -0.036 | 0.0557 | 0.0205 | -0.0008 | -0.0199 | -0.0076 | -0.057 | -0.0234
